Measurements reported in ChEMBL document CHEMBL1152465, “Comparative evaluation of the inhibitory activities of a series of pyrimidinedione congeners that inhibit human immunodeficiency virus types 1 and 2” (Antimicrob Agents Chemother, 2008).
The source made the active and inactive calls.

Tests used:
[1] = target: Human immunodeficiency virus type 1 reverse transcriptase (Human immunodeficiency virus 1, UniProt Q72547, K103N); assay: Inhibition of HIV1 reverse transcriptase K103N mutant assessed as 32P-labeled GMP incorporation into nascent DNA strand
[2] = Therapeutic index, ratio of TC50 for human CEM-SS cells to EC50 for HIV1 RF infected in human CEM-SS cells; format: cell-based; details: read-out: TI
[3] = Therapeutic index, ratio of TC50 for human CEM-SS cells to EC50 for HIV2 ROD infected in human CEM-SS cells; format: cell-based; details: for TI: cem-ss; for selectivity ratio: CEM-SS cells, read-out: TI
[4] = test system: Human immunodeficiency virus 2; assay: Antiviral activity against HIV2 ROD infected in human CEM-SS cells assessed as inhibition of virus-induced cytopathic effect by XTT assay; format: functional, organism-based, ISOLATE ROD
[5] = target: Human immunodeficiency virus type 1 reverse transcriptase (Human immunodeficiency virus 1, UniProt Q72547); assay: Inhibition of wild type HIV1 reverse transcriptase assessed as 32P-labeled GMP incorporation into nascent DNA strand
[6] = Cytotoxicity against human HeLa cells expressing CD4-LTR by XTT assay; format: cell-based; details: read-out: TC50 (the source's name)
[7] = Cytotoxicity against human CEM-SS cells by XTT assay; format: cell-based; details: read-out: TC50 (the source's name)
[8] = test system: Human immunodeficiency virus 2; assay: Inhibition of HIV2 reverse transcriptase assessed as 32P-labeled GMP incorporation into nascent DNA strand at highest concentration
[9] = Therapeutic index, ratio of TC50 human HeLa cells expressing CD4-LTR to EC50 for HIV1 entry inhibition in human HeLa cells expressing CD4-LTR; format: cell-based; details: read-out: TI
[10] = test system: Human immunodeficiency virus 2; assay: Antiviral activity against HIV2 assessed as inhibition of viral single round replication at early time point; format: functional, organism-based
[11] = test system: Human immunodeficiency virus 1; assay: Antiviral activity against HIV1 infected in human CEM-SS cells assessed as inhibition of viral replication and virus-induced cytopathic effect by dose-response curve analysis; format: functional; details: Human immunodeficiency virus 1, CEM-SS
[12] = test system: Human immunodeficiency virus 2; assay: Antiviral activity against HIV2 assessed as inhibition of viral replication treated at time points after viral entry into host cells; format: functional, organism-based
[13] = test system: Human immunodeficiency virus 1; assay: Antiviral activity against HIV1 infected in human HeLa cells expressing CD4-LTR assessed as inhibition of viral entry-related beta galactosidase expression treated for 2 hrs followed by drug wash out measured after 48 hrs by MAGI assay; format: functional, organism-based; details: Human immunodeficiency virus 1, HeLa
[14] = test system: Human immunodeficiency virus 2; assay: Inhibition of HIV2 reverse transcriptase
[15] = test system: Human immunodeficiency virus 1; assay: Antiviral activity against HIV1 RF infected in human CEM-SS cells assessed as inhibition of virus-induced cytopathic effect by XTT assay; format: functional, organism-based; details: Human immunodeficiency virus 1, RF
[16] = Human immunodeficiency virus 2, ISOLATE ROD, CEM-SS, read-out: EC50

| SMILES | IC50 [1] | selectivity ratio [2] | TI [3] | EC50 ([4]; cem-ss) | IC50 [5] | CC50 [6] | CC50 [7] | Activity [8] | selectivity ratio [9] | Activity [10] | EC99 [11] | Activity [12] | EC50 [13] | Activity [14] | EC50 [15] | selectivity ratio [3] | EC50 [4, 16] |
| --- | --- | --- | --- | --- | --- | --- | --- | --- | --- | --- | --- | --- | --- | --- | --- | --- | --- |
| Cc1cc(C)cc(Sc2c(C(C)C)c(=O)[nH]c(=O)n2CC2CCCC2)c1 | > 268 µM | 1260 | Not Active | Not Active | 129 nM | 10.6 µM | 7 µM | inactive | 39 | Active | 1 µM | inactive | 270 nM | inactive | 11 nM | – | – |
| CC(C)c1c(Sc2ccccc2)n(CC2CC=CC2)c(=O)[nH]c1=O | > 292 µM | 1300 | Not Active | Not Active | 244 nM | 25.9 µM | 15.5 µM | inactive | 22 | Active | 1 µM | inactive | 1190 nM | inactive | 28 nM | – | – |
| CCc1c(Oc2cc(C)cc(C)c2)n(CC2CCCCC2)c(=O)[nH]c1=O | 1.9 µM | 5140 | – | – | 132 nM | 129 µM | 114 µM | inactive | 555 | Active | 1 µM | inactive | 230 nM | inactive | 28 nM | 28.6 | 5.1 µM |
| Cc1cc(C)cc(Sc2c(C(C)C)c(=O)[nH]c(=O)n2CC2CC2)c1 | 1.47 µM | 37600 | – | – | 3 nM | 10.3 µM | 7.8 µM | inactive | 1180 | Active | 1 µM | inactive | 9 nM | inactive | 0.3 nM | 16.9 | 0.5 µM |
| CCc1c(Oc2cc(C)cc(C)c2)n(CC2CCCC2)c(=O)[nH]c1=O | 0.272 µM | 1450 | – | – | 137 nM | 20.9 µM | 20.2 µM | inactive | 89 | Active | 1 µM | inactive | 230 nM | inactive | 15 nM | 7 | 2.9 µM |
| CC(C)c1c(Oc2ccccc2)n(CC2CC=CC2)c(=O)[nH]c1=O | > 306 µM | 55200 | – | – | 4910 nM | 1120 µM | 1100 µM | inactive | 4370 | Active | 1 µM | inactive | 260 nM | inactive | 20 nM | 37.1 | 30.7 µM |
| Cc1cc(C)cc(C(=O)c2c(C(C)C)c(=O)[nH]c(=O)n2CCC2CC=CC2)c1 | 1.7 µM | 2390 | – | – | 11 nM | 24.9 µM | 13.9 µM | inactive | 30 | Active | 1 µM | inactive | 820 nM | inactive | 15 nM | 23 | 0.6 µM |
| Cc1cc(C)cc(Sc2c(C(C)C)c(=O)[nH]c(=O)n2CCC2CC=CC2)c1 | 149 µM | 6530 | – | – | 254 nM | 14.2 µM | 12.8 µM | inactive | 173 | Active | 1 µM | inactive | 80 nM | inactive | 2 nM | 2.5 | 6.2 µM |
| CCc1c(Sc2cc(C)cc(C)c2)n(CC2CCCC2)c(=O)[nH]c1=O | 10.5 µM | 3980 | – | – | 126 nM | 222 µM | 222 µM | inactive | 1590 | Active | 1 µM | inactive | 140 nM | inactive | 56 nM | 70.4 | 3.2 µM |
| Cc1cc(C)cc(Oc2c(C(C)C)c(=O)[nH]c(=O)n2CC2CC=CC2)c1 | 1.9 µM | 12900 | – | – | 256 nM | 200 µM | 200 µM | inactive | 2340 | Active | 1 µM | inactive | 90 nM | inactive | 15 nM | 11 | 18.2 µM |
| CCc1c(C(=O)c2cc(C)cc(C)c2)n(CCC2=CCCC2)c(=O)[nH]c1=O | > 273 µM | 20100 | – | – | 2000 nM | 1100 µM | 1100 µM | inactive | 421 | Active | 1 µM | inactive | 2600 nM | inactive | 55 nM | > 58.6 | 18.6 µM |
| CCc1c(Sc2cc(C)cc(C)c2)n(CCC2C=CCC2)c(=O)[nH]c1=O (stereo not given) | > 270 µM | 641 | – | – | 128 nM | 6.25 µM | 5.7 µM | inactive | 192 | Active | 1 µM | inactive | 30 nM | inactive | 10 nM | 10 | 0.6 µM |
| CCc1c(C(=O)c2cc(C)cc(C)c2)n(CCC2CCCC2)c(=O)[nH]c1=O | > 271 µM | 2580 | Not Active | Not Active | 119 nM | 22.2 µM | 25.8 µM | inactive | 1230 | Active | 1 µM | inactive | 20 nM | inactive | 10 nM | – | – |
| CCc1c(Sc2cc(C)cc(C)c2)n(CCC2CC=CC2)c(=O)[nH]c1=O | 141 µM | 1030 | – | – | 179 nM | 135 µM | 19.5 µM | inactive | 1460 | Active | 1 µM | inactive | 90 nM | inactive | 24.1 nM | 11.4 | 1.7 µM |
| Cc1cc(C)cc(C(=O)c2c(C)c(=O)[nH]c(=O)n2CC2CC=CC2)c1 | > 295 µM | 14 | – | – | 12700 nM | 81.9 µM | 81.9 µM | inactive | 121 | Active | 1 µM | inactive | 680 nM | inactive | 5910 nM | 2.8 | 29.6 µM |
